Patent US4029671A, “3-[(5-nitro-2-imidazolyl)pyrazol-5-yl]oxamic acid derivatives” (priority 1976, dated 1977)
Values after ≈ are worked out from the molar mass of the structure shown. Structures can show the parent of a compound that is named as a salt.

Experiments:
[1] = system: Bacteroides fragilis sp. fragilis 1877; test: Agar dilution susceptibility of anaerobic bacteria (Chart 1); assay type: cell-based
[2] = system: Bacteroides fragilis sp. fragilis 103; test: as above; assay type: cell-based
[3] = system: Bacteroides fragilis sp. fragilis 104; test: as above; assay type: cell-based; settings: Bacteroides fragilis, 24 h, read-out: 24 Hr. MIC
[4] = system: Bacteroides fragilis sp. fragilis 106; test: as above; assay type: cell-based
[5] = system: Bacteroides fragilis sp. fragilis 107; test: as above; assay type: cell-based; settings: Bacteroides fragilis, 24 h, read-out: 24 Hr. MIC
[6] = system: Bacteroides fragilis sp. fragilis 108; test: as above; assay type: cell-based
[7] = system: Bacteroides fragilis sp. fragilis 110; test: as above; assay type: cell-based
[8] = system: Bacteroides fragilis sp. fragilis 111; test: as above; assay type: cell-based
[9] = system: Bacteroides fragilis sp. fragilis 112; test: as above; assay type: cell-based
[10] = system: Bacteroides fragilis sp. fragilis 113; test: as above; assay type: cell-based
[11] = system: Bacteroides fragilis sp. fragilis 1451; test: as above; assay type: cell-based; settings: Bacteroides fragilis, 24 h, read-out: 24 Hr. MIC
[12] = system: Bacteroides fragilis sp. fragilis 1470; test: as above; assay type: cell-based
[13] = system: Bacteroides fragilis sp. fragilis 2; test: as above; assay type: cell-based; settings: Bacteroides fragilis, 24 h, read-out: 24 Hr. MIC
[14] = system: Bacteroides fragilis sp. fragilis 9; test: as above; assay type: cell-based
[15] = system: Bacteroides fragilis sp. fragilis 62; test: as above; assay type: cell-based
[16] = system: Bacteroides fragilis sp. fragilis 1874; test: as above; assay type: cell-based
[17] = system: Bacteroides fragilis sp. vulgatis 1563; test: as above; assay type: cell-based
[18] = system: Bacteroides fragilis sp. thetaiotaomicron 1438; test: as above; assay type: cell-based
[19] = system: Bacteroides fragilis sp. thetaiotaomicron 1900A; test: as above; assay type: cell-based
[20] = system: Actinomyces israelii W855; test: as above; assay type: cell-based; settings: 24 h, agar dilution, 37° C., read-out: 24 Hr. MIC
[21] = system: Clostridium perfringens 81; test: microbe, parasite or virus in culture; assay type: cell-based; settings: Clostridium perfringens, 81, 24 h, read-out: 24 Hr. MIC, agar dilution, 37° C.
[22] = system: Clostridium septicum 1128; test: Agar dilution susceptibility of anaerobic bacteria (Chart 1); assay type: cell-based; settings: Clostridium septicum, 1128, 24 h, 37° C.
Protocol: The susceptibility of anaerobic bacteria, both gram positive and gram negative, to a representative number of the novel compounds of this application was determined using the agar dilution method. The bacteria used were isolated from patients hospitalized at the Indiana Univerisity Medical Center. The isolates were identified in the anaerobe laboratory of the Medical Center by the criteria established by Dowell et al., Laboratory Methods in Anaerobic Bacteriology. Public Health Serv. Publ. NO. 1803 (1968) [Center for Disease Control, Atlanta, Ga.]; and by Smith et al., The Pathogenic Anaerobic Bacteria, pages 96- 136 (1968) [Charles C. Thomas, Publisher, Springfield, Ill.]. All the organisms were maintained in chopped meat glucose medium (Scott Labs) at room temperature.
The method used for the agar dilution tests was based on the studies of Sutter et al., Antimicrob. Ag. Chemother. 3, 188-193 (1973). The strains of anaerobic bacteria were grown in 16×× 120 mm. tubes for 16 to 18 hours in Thioglycolate medium without indicator-- 135C (Becton, Dickinson and Co.), to which was added 5 mcg. of hemin per milliliter prior to autoclaving, plus 1 mg. of sodium bicarbonate and 0.1 mcg. of filter-sterilized menadione per milliliter after autoclaving. The strains were adjusted to the turbidity of the No. 1 McFarland standard in Thioglycolate medium without indicator-- 135C containing an additional 0.13 percent Bacto-agar (Difco). Each strain was then applied to the surface of the petri plate (100 mm× 15 mm.) by means of a replicator.
For the agar dilution studies, two-fold dilutions of the test compounds were prepared in deionized water to which was then added laked sheep blood and filter-sterilized menadione so the concentrations after the agar dilution were 5 percent and 10 mcg./ml. respectively. An equal volume of double strength Brucella agar (Becton, Dickinson and Co.) was mixed with each dilution in a water bath held at 50° C. and then poured onto the petri dishes.
All of the procedures were done inside a plastic glove box, except for the incubation of the growth tubes and the pouring of the plates. After the plates hardened, they were put inside the glove box for a minimum of 2 hours before they were inoculated. Generally, the glove box procedures of Aranki et al., Applied Microbiology 17, 568-576 (1969), were followed, but the following modifications were used. Dry materials were introduced into the glove box by evacuating the lock to 28 inches of mercury and filling once with nitrogen gas, followed by evacuating in the same manner and filling with an 80 percent nitrogen plus 10 percent CO2 plus 10 percent hydrogen gas mixture. Liquid media and agar plates were introduced into the glove box by evacuating the lock to 10 inches of mercury and filling with gas four times. The nitrogen gas was used to fill the lock for the first two cycles of evacuation, with the gas mixture described above used for the final two fillings.
All the plates were incubated at 37° C. in Gas Pak jars (Becton, Dickinson and Co.) containing palladium-coated alumina catalysts (reactivated after each use). The results of the agar dilution tests were read after about 24 hours of incubation. The minimum inhibitory concentration (MIC) was recorded as the lowest concentration of test compound at which there was no growth.
The test compounds are identified by the number of the example describing their preparation. The antibiotics clindamycin (C), and erythromycin (E) were also run simultaneously with the novel compounds of this application,for comparison purposes, and the results are included in Chart 1 below.

[23] = system: Eubacterium aerofaciens 1235; test: as above; assay type: cell-based; settings: Collinsella aerofaciens, 1235, 24 h, read-out: 24 Hr. MIC
[24] = system: Peptococcus asaccharolyticus 1302; test: as above; assay type: cell-based; settings: Peptoniphilus asaccharolyticus, 1302, 24 h, read-out: 24 Hr. MIC
[25] = system: Peptococcus prevoti 1281; test: as above; assay type: cell-based; settings: 24 h, read-out: 24 Hr. MIC, agar dilution, 37° C.
[26] = system: Peptostreptococcus anaerobius 1428; test: as above; assay type: cell-based; settings: Peptostreptococcus anaerobius, 1428, 24 h, read-out: 24 Hr. MIC
[27] = system: Peptostreptococcus intermedius 1264; test: as above; assay type: cell-based; settings: Peptostreptococcus, 1264, 24 h, read-out: 24 Hr. MIC
[28] = system: Propionibacterium acnes 79; test: as above; assay type: cell-based; settings: Cutibacterium acnes, 79, 24 h, read-out: 24 Hr. MIC
[29] = system: Bacteroides fragilis sp. fragilis 1936B; test: as above; assay type: cell-based; settings: Bacteroides fragilis, 24 h, read-out: 24 Hr. MIC
[30] = system: Bacteroides melaninogenicus 1856/28; test: as above; assay type: cell-based; settings: Prevotella intermedia, 1856/28, 24 h, read-out: 24 Hr. MIC
[31] = system: Bacteroides melaninogenicus 2736; test: as above; assay type: cell-based; settings: 2736, 24 h, read-out: 24 Hr. MIC
[32] = system: Bacteroides vulgatis 1211; test: as above; assay type: cell-based; settings: Bacteroides, 1211, 24 h, read-out: 24 Hr. MIC
[33] = system: Bacteroides corrodens 1874; test: as above; assay type: cell-based; settings: Eikenella corrodens, 1874, 24 h, read-out: 24 Hr. MIC
[34] = system: Fusobacterium symbiosum 1470; test: as above; assay type: cell-based; settings: Fusobacterium, 1470, 24 h, read-out: 24 Hr. MIC
[35] = system: Fusobacterium necrophorum 6054A; test: as above; assay type: cell-based; settings: Fusobacterium necrophorum, 6054A, 24 h, read-out: 24 Hr. MIC
[36] = system: Salmonella typhimurium; test: Control of infections caused by Salmonella typhimurium in chickens (Chart 2); assay type: in vivo; settings: 60 mg./kg. subcutaneous, day-old chicks, 5 per group, 6 days observation
Protocol: The efficacy of the novel compounds in the control of infections caused by Salmonella typhimurium in chickens was evaluated in the following manner. The test was carried out using day-old chicks weighing approximately 35 g. each. The chicks were divided into groups of 5 chicks per each dosage level. A portion of the chicks received the test compound which was suspended in 0.2 ml. of polyethylene glycol 200 and administered subcutaneously in the neck. […] All the chicks were challenged with a 1:200 dilution of a culture of the organism, 0.1 ml. of the dilution being injected into each chick in the leg intramuscularly. […] The test compounds are identified in the same manner as set forth in experiment 1. In the chart, column 1 lists the compounds tested; column 2, the dosage of test compound in mg./kg.; and column 3, the survival ratio.

[37] = Bacteroides fragilis, 24 h, read-out: 24 Hr. MIC

CC[C@H]1OC(=O)[C@H](C)[C@@H](O[C@H]2C[C@@](C)(OC)[C@@H](O)[C@H](C)O2)[C@H](C)[C@@H](O[C@@H]2O[C@H](C)C[C@H](N(C)C)[C@H]2O)[C@](C)(O)C[C@@H](C)C(=O)[C@H](C)[C@@H](O)[C@]1(C)O [E, erythromycin, reference compound]
MIC [1, 37]: 2 µg/mL (≈ 2.73 µM)
MIC [2, 37]: 4 µg/mL (≈ 5.45 µM)
MIC [3]: 2 µg/mL (≈ 2.73 µM)
MIC [4, 37]: 4 µg/mL (≈ 5.45 µM)
MIC [5]: 2 µg/mL (≈ 2.73 µM)
MIC [6, 37]: 2 µg/mL (≈ 2.73 µM)
MIC [7, 37]: 16 µg/mL (≈ 21.8 µM)
MIC [8, 37]: 2 µg/mL (≈ 2.73 µM)
MIC [9, 37]: 32 µg/mL (≈ 43.6 µM)
MIC [10, 37]: 2 µg/mL (≈ 2.73 µM)
MIC [11]: 0.5 µg/mL (≈ 0.681 µM)
MIC [12, 37]: 8 µg/mL (≈ 10.9 µM)
MIC [13]: 4 µg/mL (≈ 5.45 µM)
MIC [14, 37]: 4 µg/mL (≈ 5.45 µM)
MIC [15, 37]: 8 µg/mL (≈ 10.9 µM)
MIC [16, 37]: 0.5 µg/mL (≈ 0.681 µM)
MIC [17, 37]: 1 µg/mL (≈ 1.36 µM)
MIC [18, 37]: 1 µg/mL (≈ 1.36 µM)
MIC [19, 37]: > 64 µg/mL
MIC [20]: ≤ 0.5 µg/mL
MIC [21]: 1 µg/mL (≈ 1.36 µM)
MIC [22]: 1 µg/mL (≈ 1.36 µM)
MIC [23]: ≤ 0.5 µg/mL
MIC [24]: 1 µg/mL (≈ 1.36 µM)
MIC [25]: > 128 µg/mL
MIC [26]: ≤ 0.5 µg/mL
MIC [27]: ≤ 0.5 µg/mL
MIC [28]: ≤ 0.5 µg/mL
MIC [29]: 2 µg/mL (≈ 2.73 µM)
MIC [30]: 4 µg/mL (≈ 5.45 µM)
MIC [31]: 1 µg/mL (≈ 1.36 µM)
MIC [32]: 1 µg/mL (≈ 1.36 µM)
MIC [33]: ≤ 0.5 µg/mL
MIC [34]: ≤ 0.5 µg/mL
MIC [35]: 8 µg/mL (≈ 10.9 µM)

CCOC(=O)C(=O)Nc1c(C#N)c(-c2ncc([N+](=O)[O-])n2C)nn1C [Example 3, N-[4-Cyano-1-methyl-3-(1-methyl-5-nitroimidazol-2-yl)pyrazol-5-yl]oxamic acid, ethyl ester, potassium salt]
24 Hr. MIC ([1]; agar dilution, 37° C., Bacteroides fragilis sp. fragilis 1877, potassium salt): 0.25 µg/mL
24 Hr. MIC ([2]; agar dilution, 37° C., Bacteroides fragilis sp. fragilis 103, potassium salt): 0.125 µg/mL
24 Hr. MIC ([4]; agar dilution, 37° C., Bacteroides fragilis sp. fragilis 106, potassium salt): 0.25 µg/mL
24 Hr. MIC ([6]; agar dilution, 37° C., Bacteroides fragilis sp. fragilis 108, potassium salt): 0.25 µg/mL
24 Hr. MIC ([7]; agar dilution, 37° C., Bacteroides fragilis sp. fragilis 110, potassium salt): 0.5 µg/mL
24 Hr. MIC ([8]; agar dilution, 37° C., Bacteroides fragilis sp. fragilis 111, potassium salt): 0.25 µg/mL
24 Hr. MIC ([9]; agar dilution, 37° C., Bacteroides fragilis sp. fragilis 112, potassium salt): 0.25 µg/mL
24 Hr. MIC ([10]; agar dilution, 37° C., Bacteroides fragilis sp. fragilis 113, potassium salt): 0.5 µg/mL
24 Hr. MIC ([12]; agar dilution, 37° C., Bacteroides fragilis sp. fragilis 1470, potassium salt): 0.25 µg/mL
24 Hr. MIC ([14]; agar dilution, 37° C., Bacteroides fragilis sp. fragilis 9, potassium salt): 0.25 µg/mL
24 Hr. MIC ([15]; agar dilution, 37° C., Bacteroides fragilis sp. fragilis 62, potassium salt): 0.5 µg/mL
24 Hr. MIC ([16]; agar dilution, 37° C., Bacteroides fragilis sp. fragilis 1874, potassium salt): 0.25 µg/mL
24 Hr. MIC ([17]; agar dilution, 37° C., Bacteroides fragilis sp. vulgatis 1563, potassium salt): 0.25 µg/mL
24 Hr. MIC ([18]; agar dilution, 37° C., Bacteroides fragilis sp. thetaiotaomicron 1438, potassium salt): 0.5 µg/mL
24 Hr. MIC ([19]; agar dilution, 37° C., Bacteroides fragilis sp. thetaiotaomicron 1900A, potassium salt): 0.5 µg/mL
Survival Ratio ([36]; potassium salt): 3/5

Cn1nc(-c2ncc([N+](=O)[O-])n2C)c(C#N)c1NC(=O)C(=O)NO [Example 9, N-[4-Cyano-1-methyl-3-(1-methyl-5-nitroimidazol-2-yl)pyrazol-5-yl]-N'-hydroxyoxamide]
Survival Ratio [36]: 4/5
